In brackets after ≈: the same amount, converted by molar mass. Several values for one entry are separate records, joined by “and”; a condition that tells them apart may be missing. Identical values can stand only once.
Legend:
paLpxC = paLpxC (Pseudomonas aeruginosa (strain ATCC 15692 / DSM 22644 / CIP 104116 / JCM 14847 / LMG 12228 / 1C / PRS 101 / PAO1), UniProt P47205); assay: biochemical; format: binding
P. aeruginosa PAO1 = assay: MIC by microbroth dilution, P. aeruginosa PAO1; conditions: Pseudomonas aeruginosa, PAO1, read-out: MIC (μM) (PAO1)
ecLpxC = ecLpxC (Escherichia coli (strain K12), UniProt P0A725); format: binding; conditions: residence time on ecLpxC at 25° C., displacement by fluorescent ligand
Experimental: Compounds were preincubated with ecLpxC and then mixed with a fluorescent LpxC inhibitor PT900.

[1] = tested on: wild-type E. coli and FabZ* E. coli; assay: Time kill assays in E. coli; conditions: 4xMIC (16xMIC in FIG. 3), CaMH media, 37° C.
Experimental: Each time point was performed in duplicate or triplicate and the entire experiment was performed in triplicate. The data points in the figure are the mean values from the independent measurements and the error bars represent the standard deviation from the mean.
The antimicrobial activity of the compounds was examined. […] The post-antibiotic effect (PAE) of the inhibitors was measured by monitoring the regrowth of bacteria following compound washout. […] Bacterial regrowth was monitored by plating samples as a function of time after wash-out and enumerating CFUs.

[2] = tested on: wild-type E. coli (K-12 MG1655); assay: Post-antibiotic effect (PAE) in wild-type E. coli; format: cell-based, Escherichia coli; conditions: 1:1000 dilution; for PAE (h) 1x, Wild-type: 1xMIC for 1 h; for PAE (h) 4x, Wild-type: 4xMIC for 1 h; for PAE (h) 16x, Wild-type: 16xMIC for 1 h
From the text: FIG. 4. Post-antibiotic effect of the ecLpxC inhibitors on wild-type and FabZ* E. coli. […] PAE data for wild-type E. coli are in panels (a) PT805, (c) PT810 and (e) CHIR-090, and for FabZ* E. coli in (b) PT805, (d) PT810 and (f) CHIR-090.
PAE data for wild-type E. coli are in panels (a) PT805, (c) PT810 and (e) CHIR-090, and for FabZ* E. coli in (b) PT805, (d) PT810 and (f) CHIR-090.

[3] = tested on: E. coli strain (K-12, MG1655); assay: MIC by microbroth dilution, wild-type E. coli; format: cell-based, Escherichia coli; conditions: wild-type E. coli K-12 MG1655
[4] = tested on: FabZ*, hyperactive FabZ strain (L85P); assay: microbe, parasite or virus in culture; format: cell-based, Escherichia coli
[5] = tested on: efflux-pump mutant strain (ΔMexABCDXY) (paEP); assay: MIC by microbroth dilution, efflux-pump mutant P. aeruginosa; conditions: Pseudomonas aeruginosa, read-out: MIC (μM) (paEP)
From the text: Bacterial Strains. […] The efflux-pump deficient P. aeruginosa strain (ΔMexABCDXY), N150, was derived from PAO1.
Minimum Inhibitory Concentration (MIC) Measurements.

FabZ* E. coli = format: cell-based, Escherichia coli; conditions: 1:1000 dilution; for PAE (h) 1x, FabZ*: 1xMIC for 1 h; for PAE (h) 4x, FabZ*: 4xMIC for 1 h; for PAE (h) 16x, FabZ*: 16xMIC for 1 h
From the text: FIG. 4. Post-antibiotic effect of the ecLpxC inhibitors on wild-type and FabZ* E. coli.
This included use of an E. coli strain (FabZ*) containing a hyperactive mutant of the fatty acid biosynthesis O-hydroxyacyl-ACP enzyme (FabZ), and determination of PAEs for wild-type E. coli in the presence of sub-MIC concentrations of macrolides.

[6] = tested on: wild-type E. coli (K12 MG1655); assay: PAE in wild-type E. coli in the presence of sub-MIC azithromycin; format: cell-based, Escherichia coli; conditions: 16xMIC, 37° C.; for PAE (h) (sub-MIC AZ) 16x(0.2): then media with 0.2xMIC azithromycin; for PAE (h) (sub-MIC AZ) 16x(0.4): then media with 0.4xMIC azithromycin
From the text: FIG. 6. Post-antibiotic effect in the presence of sub-MIC azithromycin.
The PAE measurements were repeated for wild-type E. coli in the presence of sub-MIC levels of the protein synthesis inhibitor azithromycin.

LpxC from E. coli = LpxC from E. coli (Escherichia coli (strain K12), UniProt P0A725); conditions: cited from earlier work
Sequence of LpxC from E. coli (P0A725 whole entry): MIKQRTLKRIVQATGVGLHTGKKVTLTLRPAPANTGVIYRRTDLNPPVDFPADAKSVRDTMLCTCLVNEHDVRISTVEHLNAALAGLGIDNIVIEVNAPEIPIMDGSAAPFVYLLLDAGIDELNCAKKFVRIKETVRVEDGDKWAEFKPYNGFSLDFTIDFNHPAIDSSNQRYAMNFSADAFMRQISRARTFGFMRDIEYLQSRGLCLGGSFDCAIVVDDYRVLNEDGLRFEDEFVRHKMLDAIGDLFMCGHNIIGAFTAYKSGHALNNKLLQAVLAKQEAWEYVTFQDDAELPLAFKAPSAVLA

[7] = target: LpxC from Aquifex aeolicus (aaLpxC) (Aquifex aeolicus (strain VF5), UniProt O67648); conditions: cited from earlier work
Sequence of LpxC from Aquifex aeolicus (aaLpxC) (O67648 whole entry): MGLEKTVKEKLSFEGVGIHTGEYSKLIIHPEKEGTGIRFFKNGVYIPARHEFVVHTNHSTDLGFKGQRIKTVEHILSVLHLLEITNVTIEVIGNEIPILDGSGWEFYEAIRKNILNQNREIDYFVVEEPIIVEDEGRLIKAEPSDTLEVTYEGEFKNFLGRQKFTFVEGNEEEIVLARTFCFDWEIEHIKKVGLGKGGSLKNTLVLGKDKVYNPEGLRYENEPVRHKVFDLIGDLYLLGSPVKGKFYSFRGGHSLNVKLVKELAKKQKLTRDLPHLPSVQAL

[8] = in vivo; cited from earlier work

Sequence of paLpxC (P47205 1-299): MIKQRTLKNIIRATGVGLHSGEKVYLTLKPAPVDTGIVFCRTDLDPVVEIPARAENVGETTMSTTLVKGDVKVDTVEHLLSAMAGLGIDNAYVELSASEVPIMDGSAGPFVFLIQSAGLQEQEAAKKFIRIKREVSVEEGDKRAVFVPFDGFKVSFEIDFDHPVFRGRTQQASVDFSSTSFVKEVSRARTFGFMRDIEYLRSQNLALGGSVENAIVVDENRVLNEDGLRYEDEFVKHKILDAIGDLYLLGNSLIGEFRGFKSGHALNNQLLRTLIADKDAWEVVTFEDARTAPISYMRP

SMILES: CC(CCn1ccc(-c2ccc(-c3cn(Cc4ccccc4)nn3)cc2)cc1=O)(C(=O)NO)S(C)(=O)=O (racemic) [PT810, 4-(4-(4-(1-Benzyl-1H-1,2,3-triazol-4-yl)phenyl)-2-oxopyridin-1(2H)-yl)-N-hydroxy-2-methyl-2-(methylsulfonyl)butanamide]
- Ki (paLpxC; 37° C., fluorescence competition): 0.0106 ± 0.0089 nM
- tR (min) Fluorescence assay (paLpxC; 37° C., tR = 1/koff): 57 min and 57.3 ± 18.4 min
- koff (paLpxC; read-out: Koff (s^−1)): 0.00032 ± 0.0001 s⁻¹
- kon (paLpxC; read-out: Kon (μM^−1s^−1)): 43.8 ± 31.7 µM⁻¹ s⁻¹
- MIC (P. aeruginosa PAO1): 12.5 µM (≈ 6.52 µg/mL)
- tR (ecLpxC): 6 ± 3 min
- reduction of the starting log CFU/mL of the bacterial culture [1]: greater than 3 logs
- PAE (h) 1x, Wild-type [2]: 0 h
- PAE (h) 4x, Wild-type [2]: 0 h
- PAE (h) 16x, Wild-type [2]: 0 h
- MIC ([3]; Escherichia coli): 0.17 µM (≈ 0.0887 µg/mL)
- MIC ([4]; Escherichia coli, read-out: MIC (μM) FabZ*): 0.08 µM (≈ 0.0417 µg/mL)
- MIC [5]: 0.78 µM (≈ 0.407 µg/mL)
- PAE (h) 1x, FabZ* (FabZ* E. coli): 0.7 ± 0.2 h
- PAE (h) 4x, FabZ* (FabZ* E. coli): 0.76 ± 0.19 h and 0.8 ± 0.2 h
- PAE (h) 16x, FabZ* (FabZ* E. coli): 0.9 ± 0.2 h
- PAE (h) (sub-MIC AZ) 16x(0.2) [6]: 1.9 ± 0.8 h
- PAE (h) (sub-MIC AZ) 16x(0.4) [6]: 2.6 ± 0.8 h

SMILES: CC(O)(C(F)F)C(NC(=O)c1ccc(C#CC#Cc2ccc(N)cc2)cc1)C(=O)NO (stereo not drawn) [LPC-058]
- residence time on LpxC from E. coli (LpxC from E. coli): ~12 h

SMILES: C[C@@H](O)[C@H](NC(=O)c1ccc(C#Cc2ccc(CN3CCOCC3)cc2)cc1)C(=O)NO [CHIR-090]
- tR (ecLpxC): 66 ± 30 min
- reduction of the starting log CFU/mL of the bacterial culture [1]: greater than 3 logs
- PAE (h) 1x, Wild-type [2]: 0 h
- PAE (h) 4x, Wild-type [2]: 0 h
- PAE (h) 16x, Wild-type [2]: 0 h
- MIC [3]: 0.62 µM (≈ 0.271 µg/mL)
- residence time on aaLpxC [7]: > 24 h
- MIC (μM) FabZ* ([4]; hyperactive FabZ strain (L85P)): 0.010 µM (≈ 0.00437 µg/mL)
- PAE (h) 1x, FabZ* (FabZ* E. coli): 0.5 ± 0.1 h
- PAE (h) 4x, FabZ* (FabZ* E. coli): 1.34 ± 0.04 h and 1.3 ± 0.3 h
- PAE (h) 16x, FabZ* (FabZ* E. coli): 2.4 ± 0.2 h
- PAE (h) (sub-MIC AZ) 16x(0.2) [6]: 2.8 ± 0.3 h
- PAE (h) (sub-MIC AZ) 16x(0.4) [6]: 3.7 ± 0.2 h

SMILES: CC(C)(N)[C@H](NC(=O)c1ccc(C#CC#C[C@@H]2C[C@H]2CO)cc1)C(=O)NO [ACHN-975]
- toxicity in clinical trials [8]: dose-limiting cardiovascular toxicity

— patent US20250099433A1, “COMPOSITION AND METHOD FOR TREATMENT OF GRAM NEGATIVE BACTERIAL INFECTION” (The Research Foundation for the State University of New York, priority 2021, published 2025)
